Target: T1, IP receptor (Homo sapiens, UniProt P43119)
T1 construct: expressed in transfected cells
Assay: cAMP accumulation in CHO cells stably expressing the IP receptor (CHO-IP), Perkin Elmer AlphaScreen assay
Assay type: cell-based
Conditions: agonist activity, 1 hour at room temperature
Experimental: Activity of compounds at the IP receptor (IP receptor) is assessed by measuring cAMP accumulation in CHO cells stably expressing the IP receptor (CHO-IP) using the Perkin Elmer AlphaScreen assay. This technology measures the endogenous production of cAMP, in a non-radioactive luminescence proximity homogenous assay. A biological reaction occurs between streptavidin coated donor beads, biotinylated cAMP and anti-cAMP acceptor beads, bringing the donor and acceptor beads close enough together so that upon excitation a fluorescence signal is produced. On production of endogenous cAMP, competition between the biotinylated cAMP and cellular-derived cAMP causes a reduction in the fluorescent signal. The reduction in signal is proportional to the amount of cAMP being produced, thus it is possible to quantify the amount of cAMP being produced on stimulation with agonist.
Test and reference compounds are prepared at 100× [final] in 100% DMSO, and diluted 1:3 using a Biomek Fx (Beckman Coulter). This is followed by an intermediate dilution to give 5× [final] in assay buffer (HBSS containing 5 mM HEPES, 0.1% (w/v) BSA). 5 μL of 5× [final] test compounds, reference compounds and buffer/DMSO control are then transferred to a 384-well white OptiPlate, containing 20 μL CHO-IP cell suspension (15,000 cells/well, prepared from frozen), and plate is incubated at room temperature for 1 hour. A cAMP standard curve is constructed for each experiment (concentration range of 10000 nM to 0.001 nM, in assay buffer) and 25 μL of each concentration added to the last two columns of the assay plate. The incubation is terminated by the addition of lysis buffer (dH2O; 0.3% (v v^−1) Tween-20) containing 20 units mL^−1 streptavidin coated donor beads and biotinylated cAMP (pre-incubated for 30 minutes) and 20 units mL^−1 anti-cAMP acceptor beads, which are added to the lysis buffer just before addition to the assay plate. The assay plate is then incubated at room temperature in the dark, for 60 minutes with gentle shaking, and read on the Envision plate reader (Perkin Elmer).
The raw data of the reference compounds, test compounds and controls are converted into cAMP concentrations, using the cAMP standard curve, in GraphPadPrism (GraphPad Software Inc). EC50 as well as maximal values of the agonist curves are determined using a 4-parameter logistic equation. The % maximum response values of all test compounds are determined using the top of the treprostinil concentration-response curve.

T1 sequence (P43119 whole entry): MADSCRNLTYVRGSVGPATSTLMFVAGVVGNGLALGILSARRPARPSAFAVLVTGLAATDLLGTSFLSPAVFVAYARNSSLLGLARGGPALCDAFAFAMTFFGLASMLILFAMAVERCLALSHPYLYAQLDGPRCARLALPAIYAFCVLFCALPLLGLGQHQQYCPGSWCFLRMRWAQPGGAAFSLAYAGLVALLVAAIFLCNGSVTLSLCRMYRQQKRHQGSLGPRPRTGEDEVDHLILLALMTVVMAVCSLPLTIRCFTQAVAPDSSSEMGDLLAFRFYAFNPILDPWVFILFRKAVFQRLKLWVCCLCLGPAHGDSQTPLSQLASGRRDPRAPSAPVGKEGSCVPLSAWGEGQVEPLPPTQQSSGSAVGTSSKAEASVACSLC

Row | SMILES | EC50
1 | Cc1ccc(-c2nc3c(nc2-c2ccc(C)cc2)N(CCCCCC2=C(O)CCC2=O)CCC3)cc1 [Example 3, 2-(5-(2,3-Di-p-tolyl-7,8-dihydropyrido[2,3-b]pyrazin-5(6H)-yl)pentyl)-3-hydroxycyclopent-2-enone] | 7.68 nM
2 | Cc1ccc(-c2nc3c(nc2-c2ccc(C)cc2)N(CCCCC2=C(O)CCC2=O)CCC3)cc1 [Example 5, 2-(4-(2,3-Ddi-p-tolyl-7,8-dihydropyrido[2,3-b]pyrazin-5(6H)-yl)butyl)-3-hydroxycyclopent-2-enone] | 165 nM
3 | Cc1ccc(-c2nc3c(nc2-c2ccc(C)cc2)N(CCCCCCc2noc(=O)[nH]2)CCC3)cc1 [Example 6, 3-(6-(2,3-Di-p-tolyl-7,8-dihydropyrido[2,3-b]pyrazin-5(6H)-yl)hexyl)-1,2,4-oxadiazol-5(4H)-one] | 28.3 nM
4 | Cc1ccc(-c2nc3c(nc2-c2ccc(C)cc2)N(CCCCCc2noc(=O)[nH]2)CCC3)cc1 [Example 6.1, 3-(5-(2,3-Di-p-tolyl-7,8-dihydropyrido[2,3-b]pyrazin-5(6H)-yl)pentyl)-1,2,4-oxadiazol-5(4H)-one] | 15.3 nM
5 | Cc1ccc(-c2nc3c(nc2-c2ccc(C)cc2)N(CCCCc2noc(=O)[nH]2)CCC3)cc1 [Example 6.2, 3-(4-(2,3-Di-p-tolyl-7,8-dihydropyrido[2,3-b]pyrazin-5(6H)-yl)butyl)-1,2,4-oxadiazol-5(4H)-one] | 14.7 nM
6 | Cc1ccc(-c2nc3c(nc2-c2ccc(C)cc2)N(CCCCc2cc(O)no2)CCC3)cc1 [Example 8, 5-(4-(2,3-Di-p-tolyl-7,8-dihydropyrido[2,3-b]pyrazin-5(6H)-yl)butyl)isoxazol-3-ol] | 34.3 nM

Results, then the molecule that gave them:

Row | EC50 | SMILES
7 | 8.91 nM | Cc1ccc(-c2nc3c(nc2-c2ccc(C)cc2)N(CCCCC2SC(=O)NC2=O)CCC3)cc1 (racemic) [Example 1, rac-5-(4-(2,3-Di-p-tolyl-7,8-dihydropyrido[2,3-b]pyrazin-5(6H)-yl)butyl)thiazolidine-2,4-dione]
8 | 3.71 nM | Cc1ccc(-c2nc3c(nc2-c2ccc(C)cc2)N(CCCCC2SC(=O)NC2=O)CCC3)cc1 (single isomer, unassigned) [1(a), (S)-5-(4-(2,3-di-p-tolyl-7,8-dihydropyrido[2,3-b]pyrazin-5(6H)-yl)butyl)thiazolidine-2,4-dione or (R)-5-(4-(2,3-di-p-tolyl-7,8-dihydropyrido[2,3-b]pyrazin-5(6H)-yl)butyl)thiazolidine-2,4-dione]
9 | 12 nM | Cc1ccc(-c2nc3c(nc2-c2ccc(C)cc2)N(CCCCC2SC(=O)NC2=O)CCC3)cc1 (single isomer, unassigned) [1(b), (S)-5-(4-(2,3-di-p-tolyl-7,8-dihydropyrido[2,3-b]pyrazin-5(6H)-yl)butyl)thiazolidine-2,4-dione or (R)-5-(4-(2,3-di-p-tolyl-7,8-dihydropyrido[2,3-b]pyrazin-5(6H)-yl)butyl)thiazolidine-2,4-dione]
10 | 2 nM | Cc1ccc(-c2nc3c(nc2-c2ccc(C)cc2)N(CCCC/C=C2/SC(=O)NC2=O)CCC3)cc1 [Example 4, 5-(5-(2,3-Ddi-p-tolyl-7,8-dihydropyrido[2,3-b]pyrazin-5(6H)-yl)pentylidene)thiazolidine-2,4-dione]
11 | 2.86 nM | Cc1ccc(-c2nc3c(nc2-c2ccc(C)cc2)N(CCCCC2CC(=O)NO2)CCC3)cc1 (centres unmarked) [Example 7, 5-(4-(2,3-Di-p-tolyl-7,8-dihydropyrido[2,3-b]pyrazin-5(6H)-yl)butyl)isoxazolidin-3-one]
